# Source: PubChem BioAssay (NCI)
#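 In this assay, cells in 96-well plates receive the compound at five concentrations for 48 hours. Endpoints are linearly interpolated between the surrounding concentrations. GI50 = concentration required for 50% inhibition of growth. TGI is the concentration that stops growth completely.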
# What was measured:
# Assay in all cases: NCI anticancer screen, dose series, 48 h
# KM12 colon = tested on: KM12 colon
# SK-MEL-28 melanoma = tested on: SK-MEL-28 melanoma
# RPMI-8226 leukemia = tested on: RPMI-8226 leukemia
# T-47D breast = tested on: T-47D breast
# HT29 colon = tested on: HT29 colon
# OVCAR-4 ovarian = tested on: OVCAR-4 ovarian
# SK-MEL-2 melanoma = tested on: SK-MEL-2 melanoma
# SF-295 CNS = tested on: SF-295 CNS
# SK-OV-3 ovarian = tested on: SK-OV-3 ovarian
# SR leukemia = tested on: SR leukemia
# IGROV1 ovarian = tested on: IGROV1 ovarian
# NCI-H23 lung = tested on: NCI-H23 lung
# HS 578T breast = tested on: HS 578T breast
# BT-549 breast = tested on: BT-549 breast
# HCC-2998 colon = tested on: HCC-2998 colon
# U251 CNS = tested on: U251 CNS
# SF-268 CNS = tested on: SF-268 CNS
# PC-3 prostate = tested on: PC-3 prostate
# SF-539 CNS = tested on: SF-539 CNS
# HOP-62 NSCLC = tested on: HOP-62 NSCLC
# DU-145 prostate = tested on: DU-145 prostate
# SN12C renal = tested on: SN12C renal
# 786-0 renal = tested on: 786-0 renal
# UO-31 renal = tested on: UO-31 renal
# HCT-15 colon = tested on: HCT-15 colon
# HCT-116 colon = tested on: HCT-116 colon
# COLO 205 colon = tested on: COLO 205 colon
# RXF 393 renal = tested on: RXF 393 renal
# NCI-H522 lung = tested on: NCI-H522 lung
# A549 NSCLC = tested on: A549 NSCLC
# MALME-3M melanoma = tested on: MALME-3M melanoma
# UACC-257 melanoma = tested on: UACC-257 melanoma
# OVCAR-8 ovarian = tested on: OVCAR-8 ovarian
# A498 renal = tested on: A498 renal
# UACC-62 melanoma = tested on: UACC-62 melanoma
# OVCAR-5 ovarian = tested on: OVCAR-5 ovarian
# TK-10 renal = tested on: TK-10 renal
# M14 melanoma = tested on: M14 melanoma
# ACHN renal = tested on: ACHN renal
# SW-620 colon = tested on: SW-620 colon
# EKVX NSCLC = tested on: EKVX NSCLC
# SNB-19 CNS = tested on: SNB-19 CNS
# MCF7 breast = tested on: MCF7 breast
# MDA-MB-435 = tested on: MDA-MB-435
# SK-MEL-5 melanoma = tested on: SK-MEL-5 melanoma
# OVCAR-3 ovarian = tested on: OVCAR-3 ovarian
# CAKI-1 renal = tested on: CAKI-1 renal
# HOP-92 NSCLC = tested on: HOP-92 NSCLC
# LOX IMVI melanoma = tested on: LOX IMVI melanoma
# SNB-75 CNS = tested on: SNB-75 CNS
# NCI-H226 lung = tested on: NCI-H226 lung
# MDA-MB-231 breast = tested on: MDA-MB-231 breast
# NCI/ADR-RES ovarian = tested on: NCI/ADR-RES ovarian
smiles,measurement,setting,value
CN(C)CCN1C(=O)c2ccc3c4c(ccc(c24)C1=O)C(=O)N(CCN=C=S)C3=O,GI50,KM12 colon,0.0415 µM
same,TGI,KM12 colon,0.173 µM
same,GI50,SK-MEL-28 melanoma,0.0839 µM
same,TGI,SK-MEL-28 melanoma,0.209 µM
same,GI50,RPMI-8226 leukemia,0.0318 µM
same,TGI,RPMI-8226 leukemia,0.197 µM
same,GI50,T-47D breast,0.0299 µM
same,TGI,T-47D breast,0.165 µM
same,GI50,HT29 colon,0.0297 µM
same,TGI,HT29 colon,0.115 µM
same,GI50,OVCAR-4 ovarian,0.13 µM
same,TGI,OVCAR-4 ovarian,0.365 µM
same,GI50,SK-MEL-2 melanoma,0.0563 µM
same,TGI,SK-MEL-2 melanoma,0.225 µM
same,GI50,SF-295 CNS,0.122 µM
same,TGI,SF-295 CNS,0.513 µM
same,GI50,SK-OV-3 ovarian,0.164 µM
same,TGI,SK-OV-3 ovarian,0.668 µM
same,GI50,SR leukemia,< 0.0172 µM
same,GI50,IGROV1 ovarian,0.051 µM
same,TGI,IGROV1 ovarian,0.236 µM
same,GI50,NCI-H23 lung,0.162 µM
same,TGI,NCI-H23 lung,0.417 µM
same,GI50,HS 578T breast,0.127 µM
same,TGI,HS 578T breast,0.68 µM
same,GI50,BT-549 breast,0.129 µM
same,TGI,BT-549 breast,0.297 µM
same,GI50,HCC-2998 colon,0.172 µM
same,TGI,HCC-2998 colon,0.381 µM
same,GI50,U251 CNS,0.0347 µM
same,TGI,U251 CNS,0.153 µM
same,GI50,SF-268 CNS,0.0466 µM
same,TGI,SF-268 CNS,0.29 µM
same,GI50,PC-3 prostate,0.0513 µM
same,TGI,PC-3 prostate,0.667 µM
same,GI50,SF-539 CNS,0.0482 µM
same,TGI,SF-539 CNS,0.212 µM
same,GI50,HOP-62 NSCLC,0.0503 µM
same,TGI,HOP-62 NSCLC,0.194 µM
same,GI50,DU-145 prostate,0.0415 µM
same,TGI,DU-145 prostate,0.149 µM
same,GI50,SN12C renal,0.0364 µM
same,TGI,SN12C renal,0.177 µM
same,GI50,786-0 renal,0.0436 µM
same,TGI,786-0 renal,0.416 µM
same,GI50,UO-31 renal,0.0281 µM
same,TGI,UO-31 renal,0.157 µM
same,GI50,HCT-15 colon,0.0579 µM
same,TGI,HCT-15 colon,0.221 µM
same,GI50,HCT-116 colon,0.027 µM
same,TGI,HCT-116 colon,0.134 µM
same,GI50,COLO 205 colon,0.0254 µM
same,TGI,COLO 205 colon,0.0922 µM
same,GI50,RXF 393 renal,0.0416 µM
same,TGI,RXF 393 renal,0.177 µM
same,GI50,NCI-H522 lung,0.0311 µM
same,TGI,NCI-H522 lung,0.145 µM
same,GI50,A549 NSCLC,0.0739 µM
same,TGI,A549 NSCLC,0.252 µM
same,GI50,MALME-3M melanoma,0.0747 µM
same,TGI,MALME-3M melanoma,0.224 µM
same,GI50,UACC-257 melanoma,0.0849 µM
same,TGI,UACC-257 melanoma,0.216 µM
same,GI50,OVCAR-8 ovarian,0.0288 µM
same,TGI,OVCAR-8 ovarian,0.173 µM
same,GI50,A498 renal,0.0529 µM
same,TGI,A498 renal,0.207 µM
same,GI50,UACC-62 melanoma,0.071 µM
same,TGI,UACC-62 melanoma,0.211 µM
same,GI50,OVCAR-5 ovarian,0.153 µM
same,TGI,OVCAR-5 ovarian,0.815 µM
same,GI50,TK-10 renal,0.0218 µM
same,TGI,TK-10 renal,0.109 µM
same,GI50,M14 melanoma,0.0735 µM
same,TGI,M14 melanoma,0.216 µM
same,GI50,ACHN renal,0.0256 µM
same,TGI,ACHN renal,0.123 µM
same,GI50,SW-620 colon,0.0269 µM
same,TGI,SW-620 colon,0.155 µM
same,GI50,EKVX NSCLC,0.396 µM
same,TGI,EKVX NSCLC,1.5 µM
same,GI50,SNB-19 CNS,0.0954 µM
same,TGI,SNB-19 CNS,0.596 µM
same,GI50,MCF7 breast,0.0257 µM
same,TGI,MCF7 breast,0.129 µM
same,GI50,MDA-MB-435,0.0585 µM
same,TGI,MDA-MB-435,0.249 µM
same,GI50,SK-MEL-5 melanoma,0.113 µM
same,TGI,SK-MEL-5 melanoma,0.235 µM
same,GI50,OVCAR-3 ovarian,0.0267 µM
same,TGI,OVCAR-3 ovarian,0.0897 µM
same,GI50,CAKI-1 renal,0.0448 µM
same,TGI,CAKI-1 renal,0.785 µM
same,GI50,HOP-92 NSCLC,0.0262 µM
same,TGI,HOP-92 NSCLC,0.174 µM
same,GI50,LOX IMVI melanoma,0.0352 µM
same,TGI,LOX IMVI melanoma,0.127 µM
same,GI50,SNB-75 CNS,0.058 µM
same,TGI,SNB-75 CNS,0.198 µM
same,GI50,NCI-H226 lung,0.1 µM
same,TGI,NCI-H226 lung,0.325 µM
same,GI50,MDA-MB-231 breast,0.0942 µM
same,TGI,MDA-MB-231 breast,0.352 µM
same,GI50,NCI/ADR-RES ovarian,0.0524 µM
same,TGI,NCI/ADR-RES ovarian,0.495 µM
